Activity calls are given as the source filed them. The rule behind the calls is not given here.
How the values were obtained:
[1] = Antioxidant activity against UV/H2O2-induced thymidine degradation at 100 uM by thymidine protection assay; format: functional
[2] = Antioxidant activity against UV/H2O2-induced thymidine degradation by thymidine protection assay; format: functional
[3] = Antioxidant activity against Fe/EDTA/H2O2-induced thymidine degradation by thymidine protection assay; format: functional
[4] = Antioxidant activity against Fe/EDTA/H2O2-induced thymidine degradation at 100 uM by thymidine protection assay; format: functional
[5] = Antioxidant activity against […]/EDTA/H2O2-induced pEGFPLuc plasmid DNA degradation assessed as remaining supercoiled DNA form at 125 uM by gel-electrophoresis; format: functional
[6] = Antioxidant activity against superoxide radical assessed as trolox equivalents by luminol-enhanced chemiluminescence; format: functional
CHO = assay: Cytotoxicity against CHO cells at 10 to 100 uM by MTT assay relative to control; format: cell-based, Cricetulus griseus; details: chinese hamster

Row | Compound | Activity [1] | EC50 [2] [µM] | EC50 [3] [µM] | Activity [4] | Activity [5] | Activity [6] [µg] | Activity (CHO)
1 | CCCCNC(=O)/C(C)=C1/OC(=O)C(c2ccc(OC)cc2)=C1O | 30% | 91 | 226 | 37% | 40% | 86 | Non-toxic
2 | COC(=O)/C(C)=C1/OC(=O)C(c2ccc(Br)cc2)=C1O | Active | – | – | Active | Active | 113 | Non-toxic
3 | COc1ccc(C2=C(O)/C(=C(/C)C(=O)NCCCN)OC2=O)cc1 | 30% | – | – | 37% | 40% | 81 | –
4 | COC(=O)/C(=C1/OC(=O)C(c2ccccc2)=C1O)c1ccccc1 | Active | – | – | Active | – | – | –
5 | COC(=O)/C(=C1/OC(=O)C(C)=C1O)c1ccc(Br)cc1 | – | – | – | – | – | 87 | –
6 | COc1ccc(/C(C(=O)OC(C)C)=C2\OC(=O)C(C)=C2O)cc1 | – | – | – | – | – | 77 | Non-toxic
7 | COC(=O)/C(=C1/OC(=O)C(C)=C1O)c1ccc(OC)cc1 | – | 175 | 971 | – | – | – | –
8 | COc1ccc(C2=C(O)/C(=C(/C)C(=O)OC(C)C)OC2=O)cc1 | 27% | – | – | 37% | Active | 105 | –
9 | COC(=O)/C(C)=C1/OC(=O)C(c2ccc(OC)cc2)=C1O | – | 130 | 196 | – | 40% | 141 | –
10 | COC(=O)/C(C)=C1/OC(=O)C(c2ccccc2)=C1O | – | – | – | – | Active | – | Non-toxic
11 | COC(=O)/C(C)=C1/OC(=O)C(c2ccc(F)cc2)=C1O | Active | – | – | Active | Active | – | –
12 | COC(=O)/C(=C1/OC(=O)C(C)=C1O)c1ccccc1 | – | 220 | 850 | – | – | – | Non-toxic
13 | COC(=O)/C(C)=C1/OC(=O)C(/C=C/c2ccccc2)=C1O | Active | – | – | Active | Active | – | –
14 | COc1ccc(C2=C(O)/C(=C(/C)C(=O)N(C)OC)OC2=O)cc1 | 30% | – | – | 37% | Active | – | –
15 | COc1ccc(C2=C(O)/C(=C(/C)C(=O)N3CCOCC3)OC2=O)cc1 | 30% | – | – | 37% | Active | 79 | Non-toxic
16 | COC(=O)/C(=C1/OC(O)=C(c2ccc(OC)cc2)C1=O)c1ccc(OC)cc1 | – | 90 | 109 | – | Active | 54 | Non-toxic
17 | COC(=O)/C(C)=C1/OC(=O)C(c2ccc(C(C)C)cc2)=C1O | Active | – | – | Active | Active | – | –
18 | COc1ccc(C2=C(O)/C(=C(/C)C(C)(C)O)OC2=O)cc1 | – | 117 | 608 | – | 40% | – | Non-toxic

— ChEMBL document CHEMBL1153415, “Evaluation of antioxidant properties of monoaromatic derivatives of pulvinic acids” (J Med Chem, 2009)
